Measurements published in article PMC9026082, “Madecassic Acid—A New Scaffold for Highly Cytotoxic Agents” (International Journal of Molecular Sciences, 2022).

Legend:
[1] = test system: several human tumor cell lines (A375, HT29, MCF-7, A2780, and HeLa); test: SRB assays, cell line not given; format: cell-based; details: cell line not stated; for EC50: Homo sapiens, SRB assays, lowest value of the series, read-out: EC50 values as low as (analogs of madecassic acid)
From the text: To assess their cytotoxicity parent, triterpenoic acids 1–3, their acetates 4–6, the amides 7–18, as well as the respective rhodamine B conjugates 19–24 were subjected to SRB assays employing several human tumor cell lines (A375, HT29, MCF-7, A2780, and HeLa) as well as non-malignant fibroblasts (NIH 3T3). […]
(§1) 2. Cytotoxicity assay (SRB assay)
(§2) The cell lines were obtained from Department of oncology (Martin-Luther-University Halle Wittenberg). Cultures were maintained as monolayers in RPMI 1640 medium with L-glutamine (Capricorn Scientific GmbH, Ebsdorfergrund, Germany) supplemented with 10% heat inactivated fetal bovine serum (Sigma -Aldrich Chemie GmbH, Steinheim, Germany) and penicillin/streptomycin (1%, Capricorn Scientific GmbH, Ebsdorfergrund, Germany) at 37 °C in a humidified atmosphere with 5% CO 2.
(§3) The cytotoxicity of the compounds was eva luated using the sulforhodamine -B (Kiton-Red S, ABCR) micro culture colorimetric assay using […] in 96 -well plates with the seeding of the cells on day 0 applying appropriate cell densities to prevent confluence of the cells during the period of the experiment. On day 1, the cells were treated with six di fferent concentrations (1, 3, 7, 12, 20 and 30 μM); thereby, the final concentration of DMSO was always < 0.5%, generally regarded as non-toxic to the cells. On day 4, the supernatant medium was discarded; the cells were fixed with 10 % trichloroacetic acid. After another day at 4 °C, the cells were washed in a strip washer and dyed with the SRB solution (100 μL, 0.4% in 1% acetic acid) for about 20 min to be followed by washing of the plates (four times, 1% acetic acid) and air -drying […]
(§4) overnight. Furthermore, tris base solution (200 μL, 10 mM) was added to each well and absorbance was measured at λ = 570 nm employing a reader (96 wells, Tecan Spectra, Crailsheim, Germany). The EC50 values were averaged from three independent experiments performed each in triplicate calculated from semi logarithmic dose response curves applying a non-linear four-parameter Hills-slope equation (GraphPad Prism5; variables top and bottom were set to 100 and 0, respectively).

[2] = test system: A2780 (ovarian carcinoma); test: SRB cytotoxicity assay, A2780; format: cell-based, human; details: for EC50: SRB assay, 72 h of treatment, cut-off 30 μM
From the text: (§5) To assess their cytotoxicity parent, triterpenoic acids 1–3, their acetates 4–6, the amides 7–18, as well as the respective rhodamine B conjugates 19–24 were subjected to SRB assays employing several human tumor cell lines (A375, HT29, MCF-7, A2780, and HeLa) as well as non-malignant fibroblasts (NIH 3T3).
(§6) A detailed description of materials and methods can be found in the Supplementary Materials File. For biological screening, the cell lines were obtained from ATCC: A375 (CRL-1619), HT29 (HTB-38), MCF7 (HTP-22), A2780 (HTP-77), HeLa (CCL-2), and NIH 3T3 (CRL-1573) ^13C NMR spectra (Supplementary Materials) were recorded as APT spectra showing CH and CH3 groups as positive signals and CH2 groups and quaternary carbons as negative signals. […]
as §1, §2, §3, §4

A375 (melanoma) = test: SRB cytotoxicity assay, A375; format: cell-based, human; details: 72 h of treatment, cut-off 30 μM
From the text: as §5, §6, §1, §2, §3, §4

[3] = test system: MCF7 (breast adenocarcinoma); test: SRB cytotoxicity assay, MCF7; format: cell-based, human; details: cut-off 30 μM
From the text: as §5, §6, §1, §2, §3, §4

[4] = test system: NIH 3T3 (non-malignant fibroblasts); test: SRB cytotoxicity assay, NIH 3T3; format: cell-based; details: cut-off 30 μM
From the text: as §5, §6, §1, §2, §3, §4

[5] = test system: HT29 (colorectal carcinoma); test: SRB cytotoxicity assay, HT29; format: cell-based, human; details: cut-off 30 μM
From the text: as §5, §6, §1, §2, §3, §4

[6] = test system: HeLa (cervical carcinoma); test: SRB cytotoxicity assay, HeLa; format: cell-based, human; details: 72 h of treatment, cut-off 30 μM
From the text: as §5, §6, §1, §2, §3, §4

A375 cells = test: Staining experiments (acridine orange, rhodamine 123, Hoechst 33,342); format: cell-based, human; details: 48 h, same area as rhodamine 123, not in nucleus (Hoechst 33,342)
Description: The mode of action—as previously shown for several triterpene-rhodamine B conjugates—is to act as mitocans. […] Thereby, Hoechst 33,342 binds selectively to DNA while rhodamine 123 is usually applied for dying mitochondria.
Figure 1 Staining experiments: A375 cells, 48 h; (A): control; (B): in the presence of 24; (C): Hoechst 33,342 staining; (D): merged (Hoechst 33,342, control); and (E): in the presence of rhodamine 123.

[7] = Homo sapiens, MCF7, 72 h of treatment
[8] = Mus musculus, NIH3T3, 72 h of treatment
[9] = Homo sapiens, HT-29, 72 h of treatment

Row | Compound | EC50 [1] | EC50 ([2]; Homo sapiens, A2780) | EC50 (A375 (melanoma); Homo sapiens, A-375, 72 h) | EC50 [3, 7] | EC50 [4, 8] | EC50 [5, 9] | EC50 [6] | EC50 [2] | EC50 (A375 (melanoma)) | EC50 ([3]; 72 h of treatment) | EC50 ([4]; 72 h of treatment) | EC50 ([5]; 72 h of treatment) | melting point | EC50 ([6]; Homo sapiens, HeLa) | times more cytotoxic than parent madecassic acid [1] | times more cytotoxic than parent madecassic acid ([2]; A2780 ovarian cancer cells) | mode of action / localization within the cells (A375 cells)
1 | CCN(CC)c1ccc2c(-c3ccccc3C(=O)N3CCN(C(=O)[C@]45CC[C@@H](C)[C@H](C)[C@H]4C4=CC[C@@H]6[C@@]7(C)C[C@@H](OC(C)=O)[C@H](OC(C)=O)[C@@](C)(COC(C)=O)[C@@H]7[C@H](O)C[C@@]6(C)[C@]4(C)CC5)CC3)c3ccc(=[N+](CC)CC)cc-3oc2c1 [Compound 23, N-{6-Diethylamino-9-[2-({4[ (2α,3β,4α,6β)-2,3,23-tris(acetyloxy)-6-hydroxy-28-oxours-12-en-28-yl)-1-piperazinyl]carbonyl]phenyl]-3H-xanthen-3-ylidene)-N-ethylethanaminium Chloride] | ≥ 0.015 µM | 0.015 ± 0.001 µM | 0.055 ± 0.01 µM | 0.054 ± 0.01 µM | 0.277 ± 0.03 µM | 0.108 ± 0.02 µM | – | – | – | – | – | – | – | – | – | – | –
2 | (3β,4α) 3-Hydroxy-23-oxoolean-12-en-28-oic Acid [Compound 1] | – | – | – | – | – | – | 25 ± 4.1 µM | 13 ± 1.6 µM | 17.3 ± 1.6 µM | 18.5 ± 2.2 µM | 16.7 ± 2.8 µM | > 30 µM | – | – | – | – | –
3 | CC(=O)OC[C@@]1(C)[C@@H]2[C@H](O)C[C@]3(C)[C@H](CC=C4[C@@H]5[C@@H](C)[C@H](C)CC[C@]5(C(=O)Nc5ccccc5)CC[C@]43C)[C@@]2(C)C[C@@H](OC(C)=O)[C@@H]1OC(C)=O [Compound 16, (2α,3β,4α,6β) 2,3,23-Tris(acetyloxy)-N-(phenyl)-6-hydroxyurs-12-en-28-amide] | ≥ 0.015 µM | 2.2 ± 0.1 µM | 1.3 ± 0.1 µM | 4.5 ± 0.9 µM | 21.1 ± 1.1 µM | 3.7 ± 0.4 µM | – | – | – | – | – | – | 135 to 139 °C | – | – | – | –
4 | CC(=O)O[C@H]1CC[C@]2(C)[C@H]3CC=C4[C@@H]5CC(C)(C)CC[C@]5(C(=O)O)CC[C@@]4(C)[C@]3(C)CC[C@H]2[C@]1(C)C=O [Compound 4, (3β,4α) 3-(Acetyloxy)-23-oxoolean-12-en-28-oic Acid] | – | – | > 30 µM | 24.6 ± 4.7 µM | – | > 30 µM | – | – | – | – | – | – | – | > 30 µM | – | – | –
5 | CC1(C)CC[C@]2(C(=O)O)CC[C@]3(C)C(=CC[C@@H]4[C@@]5(C)CC[C@H](O)[C@@](C)(CO)[C@@H]5CC[C@]43C)[C@@H]2C1 [Compound 2, (3β,4α) 3,23-Dihydroxyolean-12-en-28-oic Acid] | – | 19.6 ± 1.6 µM | 26.3 ± 1.8 µM | 25.7 ± 1.9 µM | > 30 µM | > 30 µM | – | – | – | – | – | – | – | > 30 µM | – | – | –
6 | CC(=O)OC[C@@]1(C)[C@@H]2CC[C@]3(C)[C@H](CC=C4[C@@H]5CC(C)(C)CC[C@]5(C(=O)O)CC[C@]43C)[C@@]2(C)CC[C@@H]1OC(C)=O [Compound 5, (3β,4α) 3,23-Bis(acetyloxy)olean-12-en-28-oic Acid] | – | 11.9 ± 0.5 µM | 17.1 ± 1.1 µM | 9.8 ± 1 µM | 9.6 ± 0.6 µM | 19 ± 0.6 µM | – | – | – | – | – | – | 185 to 189 °C | 12.4 ± 0.7 µM | – | – | –
7 | CCN(CC)c1ccc2c(-c3ccccc3C(=O)N3CCCN(C(=O)[C@]45CC[C@@H](C)[C@H](C)[C@H]4C4=CC[C@@H]6[C@@]7(C)C[C@@H](OC(C)=O)[C@H](OC(C)=O)[C@@](C)(COC(C)=O)[C@@H]7[C@H](O)C[C@@]6(C)[C@]4(C)CC5)CC3)c3ccc(=[N+](CC)CC)cc-3oc2c1 [Compound 24, N-{6-Diethylamino-9-[2-({4[ (2α,3β,4α,6β)-2,3,23-tris(acetyloxy)-6-hydroxy-28-oxours-12-en-28-yl)-1,4-diazepan-1-yl}carbonyl]phenyl]-3H-xanthen-3-ylidene)-N-ethylethanaminium Chloride] | – | 0.0029 ± 0.0005 µM | 0.0095 ± 0.0015 µM | 0.0162 ± 0.0045 µM | 0.101 ± 0.0231 µM | 0.0127 ± 0.0038 µM | – | – | – | – | – | – | – | 0.0526 ± 0.0151 µM | ~10,000 times | more than 10,000 times | acts as a mitocan
8 | CC(=O)OC[C@@]1(C)[C@@H]2[C@H](O)C[C@]3(C)[C@H](CC=C4[C@@H]5[C@@H](C)[C@H](C)CC[C@]5(C(=O)NCc5ccccc5)CC[C@]43C)[C@@]2(C)C[C@@H](OC(C)=O)[C@@H]1OC(C)=O [Compound 15, (2α,3β,4α,6β) 2,3,23-Tris(acetyloxy)-N-(benzyl)-6-hydroxyurs-12-en-28-amide] | ≥ 0.015 µM | 1.4 ± 0.1 µM | 1 ± 0.1 µM | 2.7 ± 0.4 µM | 17.9 ± 2.1 µM | 2.3 ± 0.2 µM | – | – | – | – | – | – | 90 to 95 °C | – | – | – | –
9 | CC(=O)OC[C@@]1(C)[C@@H]2[C@H](O)C[C@]3(C)[C@H](CC=C4[C@@H]5[C@@H](C)[C@H](C)CC[C@]5(C(=O)O)CC[C@]43C)[C@@]2(C)C[C@@H](OC(C)=O)[C@@H]1OC(C)=O [Compound 6, (2α,3β,4α,6β) 2,3,23-Tris(acetyloxy)-6-hydroxyurs-12-en-28-oic Acid] | ≥ 0.015 µM | 8.1 ± 0.7 µM | 3.5 ± 0.5 µM | 7.1 ± 0.6 µM | 7.6 ± 0.8 µM | 14.5 ± 1.1 µM | – | – | – | – | – | – | – | – | – | – | –
